# Assay results from patent US12030904B2 (priority 2020, dated 2024).
# Like-named read-outs stand apart in the source and are kept apart here.
# Legend:
# [1] = tested on: SARS-CoV-2; assay: microbe, parasite or virus in culture; type: cell-based; conditions: Severe acute respiratory syndrome coronavirus 2, read-out: SARS EC50
# [2] = tested on: Recombinant Respiratory Syncytial virus strain A2 containing the firefly luciferase reporter (RSV-Fluc); assay: microbe, parasite or virus in culture; type: cell-based; conditions: human respiratory syncytial virus, NHBE
# [3] = MT4 cytotoxicity (CC50); conditions: human, MT4 cells
# [4] = 72 h, read-out: RSV-Fluc EC50 (NHBE), NHBE cells, three days, Table 2
smiles,measurement,setting,value
"CCCCCCCCCCCCCCCCCOC[C@H](COP(=O)(O)OC[C@H]1O[C@@](C#N)(c2ccc3c(N)ncnn23)[C@H](O)[C@@H]1O)OCc1ccc(C#N)cc1 [Example 36, ((2R,3S,4R,5R)-5-(4-aminopyrrolo[2,1-f][1,2,4]triazin-7-yl)-5-cyano-3,4-dihydroxytetrahydrofuran-2-yl)methyl ((R)-2-((4-cyanobenzyl)oxy)-3-(heptadecyloxy)propyl) hydrogen phosphate]",EC50,[1],404 nM
same,EC50,"[2]; read-out: RSV EC50, Table 2a",17 nM
same,CC50,"[3]; MT4 CC50, Table 2a",530 nM
"CCCCCCCCCCCCCCCCCCOC[C@H](COP(=O)(O)OC[C@H]1O[C@@](C#N)(c2ccc3c(N)ncnn23)[C@H](O)[C@@H]1O)OCc1ccc(C#N)nc1 [Example 116, [(2R,3S,4R,5R)-5-(4-aminopyrrolo[2,1-f][1,2,4]triazin-7-yl)-5-cyano-3,4-dihydroxy-tetrahydrofuran-2-yl]methyl [(2R)-2-[(6-cyano-3-pyridyl)methoxy]-3-octadecoxy-propyl] hydrogen phosphate]",EC50,[1],170 nM
same,EC50,"[2]; read-out: RSV EC50, Table 4",26 nM
same,CC50,"[3]; MT4 CC50, Table 4",690 nM
"CCCCCCCCCCCCCCCCCCOC[C@@H](CCc1ccccc1)COP(=O)(O)OC[C@H]1O[C@@](C#N)(c2ccc3c(N)ncnn23)[C@H](O)[C@@H]1O [Example 22, ((2R,3S,4R,5R)-5-(4-aminopyrrolo[2,1-f][1,2,4]triazin-7-yl)-5-cyano-3,4-dihydroxytetrahydrofuran-2-yl)methyl ((R)-2-((octadecyloxy)methyl)-4-phenylbutyl) hydrogen phosphate]",EC50,[1],5220 nM
same,EC50,[2]; [4],160 nM
same,EC50,"[2]; read-out: RSV EC50, Table 2a",158 nM
same,CC50,"[3]; MT4 CC50, Table 2a",26400 nM
"CCCCCCCCCCCCCCCCCOCC[C@H](COP(=O)(O)OC[C@H]1O[C@@](C#N)(c2ccc3c(N)ncnn23)[C@H](O)[C@@H]1O)OCc1ccc(C#N)cc1 [Example 111, [(2R,3S,4R,5R)-5-(4-Aminopyrrolo[2,1-f][1,2,4]triazin-7-yl)-5-cyano-3,4-dihydroxy-tetrahydrofuran-2-yl]methyl [(2R)-2-[(4-cyanophenyl)methoxy]-4-heptadecoxy-butyl] hydrogen phosphate]",EC50,[1],3500 nM
same,EC50,"[2]; read-out: RSV EC50, Table 4",499 nM
same,CC50,"[3]; MT4 CC50, Table 4",18900 nM
"CCCCCCCCCCCCCCCCCCOC[C@H](COP(=O)(O)OC[C@H]1O[C@@](C#N)(c2ccc3c(N)ncnn23)[C@H](O)[C@@H]1O)OCc1cnc(C(F)(F)F)nc1 [Example 122, [(2R,3S,4R,5R)-5-(4-Aminopyrrolo[2,1-f][1,2,4]triazin-7-yl)-5-cyano-3,4-dihydroxy-tetrahydrofuran-2-yl]methyl [(2R)-3-octadecoxy-2-[[2-(trifluoromethyl)pyrimidin-5-yl]methoxy]propyl] hydrogen phosphate]",EC50,[1],450 nM
same,EC50,"[2]; read-out: RSV EC50, Table 4",39 nM
same,CC50,"[3]; MT4 CC50, Table 4",995 nM
"CCCCCCCCCCCCCCCCCCOC[C@H](COP(=O)(O)OC[C@H]1O[C@@](C#N)(c2ccc3c(N)ncnn23)[C@H](O)[C@@H]1O)n1cnc(C#N)c1 [Example 79, ((2R,3S,4R,5R)-5-(4-aminopyrrolo[2,1-f][1,2,4]triazin-7-yl)-5-cyano-3,4-dihydroxytetrahydrofuran-2-yl)methyl ((R)-2-(4-cyano-1H-imidazol-1-yl)-3-(octadecyloxy)propyl) hydrogen phosphate]",EC50,[1],330 nM
same,EC50,"[2]; read-out: RSV EC50, Table 4",103 nM
same,CC50,"[3]; MT4 CC50, Table 4",10100 nM
"CCCCCCCCCCCCCCCCCCOC[C@H](COP(=O)(O)OC[C@H]1O[C@@](C#N)(c2ccc3c(N)ncnn23)[C@H](O)[C@@H]1O)OCc1ccc(C#N)c(F)c1 [Example 67, ((2R,3S,4R,5R)-5-(4-aminopyrrolo[2,1-f][1,2,4]triazin-7-yl)-5-cyano-3,4-dihydroxytetrahydrofuran-2-yl)methyl ((R)-2-((4-cyano-3-fluorobenzyl)oxy)-3-(octadecyloxy)propyl) hydrogen phosphate]",EC50,[1],229 nM
same,EC50,[2]; [4],7.6 nM
same,EC50,"[2]; read-out: RSV EC50, Table 2a",19 nM
same,CC50,"[3]; MT4 CC50, Table 2a",744 nM
"CCCCCCCCCCCCCCCCCCOC[C@H](COP(=O)(O)OC[C@H]1O[C@@](C#N)(c2ccc3c(N)ncnn23)[C@H](O)[C@@H]1O)OCc1cc(C#N)cc(OC)c1 [Example 106, [(2R,3S,4R,5R)-5-(4-Aminopyrrolo[2,1-f][1,2,4]triazin-7-yl)-5-cyano-3,4-dihydroxy-tetrahydrofuran-2-yl]methyl [(2R)-2-[(3-cyano-5-methoxy-phenyl)methoxy]-3-octadecoxy-propyl] hydrogen phosphate]",EC50,[1],10000 nM
same,EC50,"[2]; read-out: RSV EC50, Table 4",88 nM
same,CC50,"[3]; MT4 CC50, Table 4",871 nM
"CCCCCCCCCCCCCCOCCCCOP(=O)(O)OC[C@H]1O[C@@](C#N)(c2ccc3c(N)ncnn23)[C@H](O)[C@@H]1O [Example 120, [(2R,3S,4R,5R)-5-(4-Aminopyrrolo[2,1-f][1,2,4]triazin-7-yl)-5-cyano-3,4-dihydroxy-tetrahydrofuran-2-yl]methyl 4-tetradecoxybutyl hydrogen phosphate]",EC50,[1],10000 nM
same,EC50,"[2]; read-out: RSV EC50, Table 4",224 nM
same,CC50,"[3]; MT4 CC50, Table 4",12100 nM
"CCCCCCCCCCCCCCCCOC[C@H](COP(=O)(O)OC[C@H]1O[C@@](C#N)(c2ccc3c(N)ncnn23)[C@H](O)[C@@H]1O)OCc1ccc(C#N)cc1F [Example 112, [(2R,3S,4R,5R)-5-(4-Aminopyrrolo[2,1-f][1,2,4]triazin-7-yl)-5-cyano-3,4-dihydroxy-tetrahydrofuran-2-yl]methyl [(2R)-2-[(4-cyano-2-fluoro-phenyl)methoxy]-3-hexadecoxy-propyl] hydrogen phosphate]",EC50,[1],130 nM
same,EC50,"[2]; read-out: RSV EC50, Table 4",63 nM
same,CC50,"[3]; MT4 CC50, Table 4",1940 nM
"CCCCCCCCCCCCCCCOC[C@H](COP(=O)(O)OC[C@H]1O[C@@](C#N)(c2ccc3c(N)ncnn23)[C@H](O)[C@@H]1O)OCc1cc(F)cc(C#N)c1 [Example 118, [(2R,3S,4R,5R)-5-(4-Aminopyrrolo[2,1-f][1,2,4]triazin-7-yl)-5-cyano-3,4-dihydroxy-tetrahydrofuran-2-yl]methyl [(2R)-2-[(3-cyano-5-fluoro-phenyl)methoxy]-3-pentadecoxy-propyl] hydrogen phosphate]",EC50,[1],120 nM
same,EC50,"[2]; read-out: RSV EC50, Table 4",37 nM
same,CC50,"[3]; MT4 CC50, Table 4",291 nM
"CCCCCCCC/C=C/CCCCCCCCOC[C@H](COP(=O)(O)OC[C@H]1O[C@@](C#N)(c2ccc3c(N)ncnn23)[C@H](O)[C@@H]1O)OCc1ccccc1 [Example 131, ((2R,3S,4R,5R)-5-(4-aminopyrrolo[2,1-f][1,2,4]triazin-7-yl)-5-cyano-3,4-dihydroxytetrahydrofuran-2-yl)methyl ((R)-2-(benzyloxy)-3-(((E)-octadec-9-en-1-yl)oxy)propyl) hydrogen phosphate]",EC50,[1],110 nM
same,EC50,"[2]; read-out: RSV EC50, Table 4",39 nM
same,CC50,"[3]; MT4 CC50, Table 4",3390 nM
"CCCCCCCCCCCCCCCCCCOC[C@H](COP(=O)(O)OC[C@H]1O[C@@](C#N)(c2ccc3c(N)ncnn23)[C@H](O)[C@@H]1O)OC(C)c1ccccc1 (single isomer, unassigned) [Example 27]",EC50,[1],2000 nM
same,EC50,[2]; [4],110 nM
same,EC50,"[2]; read-out: RSV EC50, Table 2a",113 nM
same,CC50,"[3]; MT4 CC50, Table 2a",614 nM
"CCCCCCCCCCCCCCCCCCOC[C@H](COP(=O)(O)OC[C@H]1O[C@@](C#N)(c2ccc3c(N)ncnn23)[C@H](O)[C@@H]1O)OCc1ccc2c(c1)CCC2 [Example 52, ((2R,3S,4R,5R)-5-(4-aminopyrrolo[2,1-f][1,2,4]triazin-7-yl)-5-cyano-3,4-dihydroxytetrahydrofuran-2-yl)methyl ((R)-2-((2,3-dihydro-1H-inden-5-yl)methoxy)-3-(octadecyloxy)propyl) hydrogen phosphate]",EC50,[1],487 nM
same,EC50,"[2]; read-out: RSV EC50, Table 2a",125 nM
same,CC50,"[3]; MT4 CC50, Table 2a",17900 nM
"CCCCCCCCCCCCCCCCCCOC[C@H](COP(=O)(O)OC[C@H]1O[C@@](C#N)(c2ccc3c(N)ncnn23)[C@H](O)[C@@H]1O)OCc1ccc(C#N)cc1Cl [Example 103, [(2R,3S,4R,5R)-5-(4-Aminopyrrolo[2,1-f][1,2,4]triazin-7-yl)-5-cyano-3,4-dihydroxy-tetrahydrofuran-2-yl]methyl [(2R)-2-[(2-chloro-4-cyano-phenyl)methoxy]-3-octadecoxy-propyl] hydrogen phosphate]",EC50,[1],10000 nM
same,EC50,"[2]; read-out: RSV EC50, Table 4",387 nM
same,CC50,"[3]; MT4 CC50, Table 4",50000 nM
"CCCCCCCCCCCCCCCCCCOC[C@H](COP(=O)(O)OC[C@H]1O[C@@](C#N)(c2ccc3c(N)ncnn23)[C@H](O)[C@@H]1O)Oc1ccc(C#N)c(OC)c1 [Example 74, ((2R,3S,4R,5R)-5-(4-aminopyrrolo[2,1-f][1,2,4]triazin-7-yl)-5-cyano-3,4-dihydroxytetrahydrofuran-2-yl)methyl ((R)-2-(4-cyano-3-methoxyphenoxy)-3-(octadecyloxy)propyl) hydrogen phosphate]",EC50,[1],31 nM
same,EC50,"[2]; read-out: RSV EC50, Table 4",10 nM
same,CC50,"[3]; MT4 CC50, Table 4",196 nM
"CCCCCCCCCCCCCCCCCCOC[C@H](COP(=O)(O)OC[C@H]1O[C@@](C#N)(c2ccc3c(N)ncnn23)[C@H](O)[C@@H]1O)OCc1cc(C#N)ccc1OC [Example 104, [(2R,3S,4R,5R)-5-(4-Aminopyrrolo[2,1-f][1,2,4]triazin-7-yl)-5-cyano-3,4-dihydroxy-tetrahydrofuran-2-yl]methyl [(2R)-2-[(5-cyano-2-methoxy-phenyl)methoxy]-3-octadecoxy-propyl] hydrogen phosphate]",EC50,[1],1300 nM
same,EC50,"[2]; read-out: RSV EC50, Table 4",222 nM
same,CC50,"[3]; MT4 CC50, Table 4",2550 nM
"CCCCCCCCCCCCCCCCCCOC[C@H](COP(=O)(O)OC[C@H]1O[C@@](C#N)(c2ccc3c(N)ncnn23)[C@H](O)[C@@H]1O)OCc1ccsc1 [Example 20, ((2R,3S,4R,5R)-5-(4-aminopyrrolo[2,1-f][1,2,4]triazin-7-yl)-5-cyano-3,4-dihydroxytetrahydrofuran-2-yl)methyl ((R)-3-(octadecyloxy)-2-(thiophen-3-ylmethoxy)propyl) hydrogen phosphate]",EC50,[1],264 nM
same,EC50,[2]; [4],76 nM
same,EC50,"[2]; read-out: RSV EC50, Table 2a",76 nM
same,CC50,"[3]; MT4 CC50, Table 2a",13200 nM
